Source: US10442796B2, “2,3,5-substituted thiophene compound as protein kinase inhibitor” (KOREA INSTITUTE OF SCIENCE AND TECHNOLOGY, priority 2016, dated 2019)
Substitutions are numbered along the chain they refer to. Counter-ions that a name gives are not always drawn.

How the values were obtained:
Test in all cases: Growth inhibitory activity against Ba/F3 cell line
Type in all cases: cell-based
FLT3-D835Y Ba/F3 cells = molecular target: T1, FLT3-D835Y Ba/F3 cells (Homo sapiens, UniProt P36888, D835Y, cells depend on it); details: Ba/F3 expressing FLT3-D835Y; 72 hours; cell titer glo; read-out: IC50 (uM) FLT3-D835Y
T1 sequence (P36888 1-993 D835Y): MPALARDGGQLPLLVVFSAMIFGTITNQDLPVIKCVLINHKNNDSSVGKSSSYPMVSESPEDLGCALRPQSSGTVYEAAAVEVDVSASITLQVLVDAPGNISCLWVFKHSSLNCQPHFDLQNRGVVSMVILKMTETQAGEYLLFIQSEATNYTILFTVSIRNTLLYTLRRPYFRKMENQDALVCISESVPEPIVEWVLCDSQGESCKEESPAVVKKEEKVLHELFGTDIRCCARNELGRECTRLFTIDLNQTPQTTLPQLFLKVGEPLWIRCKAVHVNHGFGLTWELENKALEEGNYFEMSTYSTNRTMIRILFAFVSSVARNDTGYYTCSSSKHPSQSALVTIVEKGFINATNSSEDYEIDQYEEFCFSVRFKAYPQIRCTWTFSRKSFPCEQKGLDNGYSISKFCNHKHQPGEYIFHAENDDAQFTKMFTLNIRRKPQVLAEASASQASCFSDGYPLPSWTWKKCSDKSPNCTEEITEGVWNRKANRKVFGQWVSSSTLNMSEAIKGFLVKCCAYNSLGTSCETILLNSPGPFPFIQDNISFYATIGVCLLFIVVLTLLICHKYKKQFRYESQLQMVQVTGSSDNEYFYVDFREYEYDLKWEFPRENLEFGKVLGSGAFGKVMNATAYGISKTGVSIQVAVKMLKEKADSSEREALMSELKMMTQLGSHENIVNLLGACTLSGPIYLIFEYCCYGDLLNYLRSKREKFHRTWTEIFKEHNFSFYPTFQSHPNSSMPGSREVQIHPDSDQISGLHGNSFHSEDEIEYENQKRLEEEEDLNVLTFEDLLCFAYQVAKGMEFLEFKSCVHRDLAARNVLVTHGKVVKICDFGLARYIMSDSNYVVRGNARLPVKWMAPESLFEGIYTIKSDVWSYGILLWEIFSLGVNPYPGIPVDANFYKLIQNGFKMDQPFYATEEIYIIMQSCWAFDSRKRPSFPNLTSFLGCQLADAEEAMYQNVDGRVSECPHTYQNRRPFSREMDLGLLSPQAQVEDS
How it was run: (§1)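 Ba/F3 cells carrying FLT3 mutants grown in RPMI with 10% FBS, exposed 72 h to ten 3-fold dilutions of compound starting from 1 mM DMSO stock. Viability read by CellTiter-Glo luminescence; GI50 fitted from signal versus final concentration.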

FLT3-ITD Ba/F3 cells = molecular target: T2, FLT3-ITD Ba/F3 cells (Homo sapiens, UniProt P36888, cells depend on it, form not given); details: Ba/F3 expressing FLT3-ITD; 72 hours; cell titer glo; read-out: IC50 (uM) FLT3-ITD
T2 sequence (P36888 1-993): T1 sequence (P36888 1-993 D835Y) with Y835D
How it was run: as §1

Parental Ba/F3 cells = details: BaF3; Parental Ba/F3 with mouse IL-3 1 ng/mL; 72 hours; cell titer glo
Protocol: A Ba/F3 cell line expressing an FLT3 mutation gene was cultured in a culture solution including 90% RPMI, 10% FBS, and an antibiotic (Welgene). 100 uL of the Ba/F3 cell line was put into each of 5,000 wells of a TC-treated 96 well plate (SPL), and then 1 uL of a test compound diluted in dimethylsulfoxide (diluted for each 3 paint from a concentration of 1 mM, total 10 concentrations) was each injected thereinto. Thereafter, the resulting cell lines were incubated in a cell culture incubator for 72 hours. 50 uL of a cell titer glo (Promega) solution was added thereto, the resulting mixture was stored at room temperature for 10 minutes, and then the light emission intensity was measured by using a reader (Envision, PerkinElmer). The light emission intensity was shown as a graph for each final concentration of the test compound, and the GI50 value was obtained by using a Prism 5.0 (GraphPad) software.
A parental Ba/F3 cell line having no FLT3 mutation gene was cultured by using a culture solution supplemented with mouse IL-3 (R&D Systems), such that a final concentration became 1 ng/mL in the culture solution including 90% RPMI, 10% FBS, and an antibiotic (Welgene). The activity was measured by a method which is the same as described above.

| GI50 (FLT3-D835Y Ba/F3 cells) [µM] | GI50 (FLT3-ITD Ba/F3 cells) [µM] | Structure (SMILES) | IC50 (Parental Ba/F3 cells) [µM] |
| --- | --- | --- | --- |
| > 33 | 6.28 | Cn1cc(CCc2cc(NC(N)=O)c(C(=O)N[C@H]3CCCCNC3)s2)cn1 [Example 52, (S)—N-(azepan-3-yl)-5-(2-(1-methyl-1H-pyrazol-4-yl)ethyl)-3-ureidothiophene-2-carboxamide trifluoroacetate] | > 100 |
| 0.533 | 0.027 | CS(=O)(=O)N1CCC(n2cc(C#Cc3cc(NC(N)=O)c(C(=O)N[C@H]4CCCCNC4)s3)cn2)CC1 [Example 47, (S)—N-(azepan-3-yl)-5-((1-(1-(methylsulfonyl)piperidin-4-yl)-1H-pyrazol-4-yl)ethynyl)-3-ureidothiophene-2-carboxamide trifluoroacetate] | > 5 |
| 0.07 | < 0.005 | NC(=O)Nc1cc(C#Cc2ccc([N+](=O)[O-])cc2)sc1C(=O)N[C@H]1CCCNC1 [Example 7, (S)-5-((4-nitrophenyl)ethynyl)-N-(piperidin-3-yl)-3-ureidothiophene-2-carboxamide] | 1.86 |

| Structure (SMILES) | GI50 (FLT3-D835Y Ba/F3 cells) [µM] | GI50 (FLT3-ITD Ba/F3 cells) [µM] | IC50 (Parental Ba/F3 cells) [µM] |
| --- | --- | --- | --- |
| NC(=O)Nc1cc(C#Cc2cccc(F)c2)sc1C(=O)N[C@H]1CCCNC1 [Example 22, (S)-5-((3-fluorophenyl)ethynyl)-N-(piperidin-3-yl)-3-ureidothiophene-2-carboxamide] | 0.052 | 0.007 | 3.65 |
